From patent US9605003B2, “Heterocyclic compounds and uses thereof” (Infinity Pharmaceuticals, Inc., priority 2011, dated 2017) come the findings set out here.

Where only a bound is given, the exact number is not on record here.

For one test, the system named is Balb/c splenic B cells. Nature of the test: B cell activation and proliferation assay (Alamar Blue). Particulars: Mus musculus, Less than 100 nanoMolar. Format: cell-based. The protocol: The ability of one or more subject compounds to inhibit B cell activitation and proliferation is determined according to standard procedures known in the art. For example, an in vitro cellular proliferation assay is established that measures the metabolic activity of live cells. The assay is performed in a 96 well microtiter plate using Alamar Blue reduction. Balb/c splenic B cells are purified over a Ficoll-Paque™ PLUS gradient followed by magnetic cell separation using a MACS B cell Isolation Kit (Miletenyi). Cells are plated in 90 μl at 50,000 cells/well in B Cell Media (RPMI+10% FBS+Penn/Strep+50 μM bME+5 mM HEPES). A compound provided herein is diluted in B Cell Media and added in a 10 μl volume. Plates are incubated for 30 min at 37° C. and 5% CO2 (0.2% DMSO final concentration). A 50 μl B cell stimulation cocktail is then added containing either 10 μg/ml LPS or 5 μg/ml F(ab′)2 Donkey anti-mouse IgM plus 2 ng/ml recombinant mouse IL4 in B Cell Media. Plates are incubated for 72 hours at 37° C. and 5% CO2. A volume of 15 μL of Alamar Blue reagent is added to each well and plates are incubated for 5 hours at 37° C. and 5% CO2. Alamar Blue fluoresce is read at 560Ex/590Em, and IC50 or EC50 values are calculated using GraphPad Prism 5.
In general terms: Alamar Blue is a resazurin reagent that responds to reducing activity.

For another test, the target named is T1, PI3Kβ (Homo sapiens, UniProt P42338).
T1 construct: purchased Millipore Corporation 14-603-K
Nature of the test: PI3 Kinase HTRF assay, PI3Kβ. Format: biochemical. Particulars: Between 1 μM and 10 μM; read-out: PI3K β IC50. The text has this:
(§1) A PI3-Kinase HTRF® assay kit (cat No. 33-016) purchased from Millipore Corporation was used to screen compounds provided herein. This assay used specific, high affinity binding of the GRP1 pleckstrin homology (PH) domain to PIP3, the product of a Class 1A or 1B PI3 Kinase acting on its physiological substrate PIP2. During the detection phase of the assay, a complex was generated between the GST-tagged PH domain and biotinylated short chain PIP3. The biotinylated PIP3 and the GST-tagged PH domain recruited fluorophores (Streptavidin-Allophycocyanin and Europium-labeled anti-GST respectively) to form the fluorescence resonance energy transfer (FRET) architecture, generating a stable time-resolved FRET signal. The FRET complex was disrupted in a competitive manner by non-biotinylated PIP3, a product formed in the PI3 Kinase assay.
(§2) PI3 Kinase α, β, γ and δ activity was assayed using the PI3 Kinase HTRF® assay kit (catalogue No. 33-016) purchased from Millipore Corporation. Purified recombinant PI3Kα (catalogue No. 14-602-K), PI3Kβ (catalogue No. 14-603-K), PI3Kγ (catalogue No. 14-558-K) and PI3Kδ (catalogue No. 14-604-K) were obtained from Millipore Corporation. Purified recombinant PI3K enzyme was used to catalyze the phosphorylation of phosphatidylinositol 4,5-bisphosphate (PIP2 at 10 μM) to phosphatidylinositol 3,4,5-trisphosphate (PIP3) in the presence of 10 μM ATP. The assay was carried out in 384-well format and detected using a Perkin Elmer EnVision Xcite Multilabel Reader. Emission ratios were converted into percent inhibitions and imported into GraphPad Prism software. The concentration necessary to achieve inhibition of enzyme activity by 50% (IC50) was calculated using concentrations ranging from 20 μM to 0.1 nM (12-point curve). IC50 values were determined using a nonlinear regression model available in GraphPad Prism 5.

The target of a further test is T2, PI3Kα (Homo sapiens, UniProt P42336).
T2 construct: purchased Millipore Corporation 14-602-K
In words: PI3 Kinase HTRF assay, PI3Kα. Format: biochemical. Particulars: Between 1 μM and 10 μM; read-out: PI3K α IC50.
Excerpt: as §1, §2
(TR-FRET usually uses a lanthanide donor and a delayed reading to cut background.)

T1 sequence (P42338 whole entry): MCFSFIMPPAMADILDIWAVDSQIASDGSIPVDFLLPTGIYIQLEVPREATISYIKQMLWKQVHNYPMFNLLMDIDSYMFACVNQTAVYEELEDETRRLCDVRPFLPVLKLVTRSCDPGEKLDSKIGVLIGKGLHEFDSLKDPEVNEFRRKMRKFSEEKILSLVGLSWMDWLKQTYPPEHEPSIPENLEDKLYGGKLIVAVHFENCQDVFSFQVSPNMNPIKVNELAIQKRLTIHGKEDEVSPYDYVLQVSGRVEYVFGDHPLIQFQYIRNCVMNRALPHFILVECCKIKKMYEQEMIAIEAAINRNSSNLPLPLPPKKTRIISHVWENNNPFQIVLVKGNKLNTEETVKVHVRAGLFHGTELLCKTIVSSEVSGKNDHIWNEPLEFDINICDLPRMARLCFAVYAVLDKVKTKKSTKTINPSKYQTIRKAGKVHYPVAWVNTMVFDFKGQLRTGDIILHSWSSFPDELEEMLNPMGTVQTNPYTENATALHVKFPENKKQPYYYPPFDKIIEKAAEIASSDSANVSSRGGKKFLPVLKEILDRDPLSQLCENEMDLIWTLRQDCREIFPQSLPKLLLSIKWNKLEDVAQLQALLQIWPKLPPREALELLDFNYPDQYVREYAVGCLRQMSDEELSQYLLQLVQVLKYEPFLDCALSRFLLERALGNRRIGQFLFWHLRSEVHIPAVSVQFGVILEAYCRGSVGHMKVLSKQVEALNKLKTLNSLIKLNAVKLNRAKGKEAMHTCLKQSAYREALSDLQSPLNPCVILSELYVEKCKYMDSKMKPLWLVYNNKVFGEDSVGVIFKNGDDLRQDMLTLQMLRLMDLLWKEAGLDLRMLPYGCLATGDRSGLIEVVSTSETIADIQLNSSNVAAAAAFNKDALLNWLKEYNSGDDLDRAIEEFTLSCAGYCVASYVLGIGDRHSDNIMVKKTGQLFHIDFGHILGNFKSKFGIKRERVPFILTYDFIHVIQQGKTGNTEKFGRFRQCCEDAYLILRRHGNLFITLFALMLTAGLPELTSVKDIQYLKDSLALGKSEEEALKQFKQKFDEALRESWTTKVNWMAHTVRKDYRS
T1 sequence (P27986 2-724 partner limits assumed): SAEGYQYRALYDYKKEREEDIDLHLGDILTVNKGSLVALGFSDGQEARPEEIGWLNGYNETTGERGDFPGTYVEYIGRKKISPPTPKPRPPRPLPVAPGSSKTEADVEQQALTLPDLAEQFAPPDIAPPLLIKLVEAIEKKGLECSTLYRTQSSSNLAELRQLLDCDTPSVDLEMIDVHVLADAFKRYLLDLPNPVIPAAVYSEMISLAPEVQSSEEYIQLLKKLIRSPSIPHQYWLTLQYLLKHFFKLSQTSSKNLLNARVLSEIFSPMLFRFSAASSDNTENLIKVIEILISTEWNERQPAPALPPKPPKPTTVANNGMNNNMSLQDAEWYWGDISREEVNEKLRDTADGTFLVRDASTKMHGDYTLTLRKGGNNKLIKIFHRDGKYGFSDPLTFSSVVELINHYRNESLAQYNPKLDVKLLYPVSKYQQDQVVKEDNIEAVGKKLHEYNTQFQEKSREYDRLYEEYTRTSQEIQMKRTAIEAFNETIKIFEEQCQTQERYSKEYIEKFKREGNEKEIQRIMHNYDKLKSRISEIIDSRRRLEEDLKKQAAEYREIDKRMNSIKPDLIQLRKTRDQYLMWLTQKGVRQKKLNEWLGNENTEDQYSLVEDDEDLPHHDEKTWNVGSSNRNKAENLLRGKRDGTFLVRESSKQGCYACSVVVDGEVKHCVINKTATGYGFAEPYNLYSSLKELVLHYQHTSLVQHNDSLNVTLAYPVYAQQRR
T2 sequence (P42336 whole entry): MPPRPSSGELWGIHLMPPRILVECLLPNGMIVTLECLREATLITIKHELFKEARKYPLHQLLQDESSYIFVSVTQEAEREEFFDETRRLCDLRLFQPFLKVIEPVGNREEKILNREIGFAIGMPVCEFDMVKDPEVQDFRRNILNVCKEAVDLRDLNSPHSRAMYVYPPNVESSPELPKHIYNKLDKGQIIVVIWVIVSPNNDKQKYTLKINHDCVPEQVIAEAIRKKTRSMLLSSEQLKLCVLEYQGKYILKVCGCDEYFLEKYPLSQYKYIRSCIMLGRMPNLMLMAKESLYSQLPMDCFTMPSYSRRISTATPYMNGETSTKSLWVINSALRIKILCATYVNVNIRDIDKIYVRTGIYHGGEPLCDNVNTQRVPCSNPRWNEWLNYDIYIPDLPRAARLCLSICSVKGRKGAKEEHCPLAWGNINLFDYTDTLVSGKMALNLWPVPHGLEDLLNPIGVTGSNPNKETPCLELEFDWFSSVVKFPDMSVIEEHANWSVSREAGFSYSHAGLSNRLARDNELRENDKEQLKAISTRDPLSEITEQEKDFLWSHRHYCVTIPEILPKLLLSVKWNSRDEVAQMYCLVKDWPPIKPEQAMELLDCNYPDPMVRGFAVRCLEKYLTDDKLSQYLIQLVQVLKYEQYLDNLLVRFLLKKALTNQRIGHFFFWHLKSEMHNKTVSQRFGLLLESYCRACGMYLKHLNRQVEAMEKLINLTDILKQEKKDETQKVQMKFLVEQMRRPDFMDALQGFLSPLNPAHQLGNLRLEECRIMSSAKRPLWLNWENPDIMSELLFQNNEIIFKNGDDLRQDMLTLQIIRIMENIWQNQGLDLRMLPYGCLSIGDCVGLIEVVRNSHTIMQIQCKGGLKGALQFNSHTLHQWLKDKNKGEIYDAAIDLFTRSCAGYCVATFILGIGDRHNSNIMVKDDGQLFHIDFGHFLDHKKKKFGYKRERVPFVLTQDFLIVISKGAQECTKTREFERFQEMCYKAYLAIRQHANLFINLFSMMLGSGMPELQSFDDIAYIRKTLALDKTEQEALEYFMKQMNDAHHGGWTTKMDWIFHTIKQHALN
T2 sequence (P27986 whole entry partner): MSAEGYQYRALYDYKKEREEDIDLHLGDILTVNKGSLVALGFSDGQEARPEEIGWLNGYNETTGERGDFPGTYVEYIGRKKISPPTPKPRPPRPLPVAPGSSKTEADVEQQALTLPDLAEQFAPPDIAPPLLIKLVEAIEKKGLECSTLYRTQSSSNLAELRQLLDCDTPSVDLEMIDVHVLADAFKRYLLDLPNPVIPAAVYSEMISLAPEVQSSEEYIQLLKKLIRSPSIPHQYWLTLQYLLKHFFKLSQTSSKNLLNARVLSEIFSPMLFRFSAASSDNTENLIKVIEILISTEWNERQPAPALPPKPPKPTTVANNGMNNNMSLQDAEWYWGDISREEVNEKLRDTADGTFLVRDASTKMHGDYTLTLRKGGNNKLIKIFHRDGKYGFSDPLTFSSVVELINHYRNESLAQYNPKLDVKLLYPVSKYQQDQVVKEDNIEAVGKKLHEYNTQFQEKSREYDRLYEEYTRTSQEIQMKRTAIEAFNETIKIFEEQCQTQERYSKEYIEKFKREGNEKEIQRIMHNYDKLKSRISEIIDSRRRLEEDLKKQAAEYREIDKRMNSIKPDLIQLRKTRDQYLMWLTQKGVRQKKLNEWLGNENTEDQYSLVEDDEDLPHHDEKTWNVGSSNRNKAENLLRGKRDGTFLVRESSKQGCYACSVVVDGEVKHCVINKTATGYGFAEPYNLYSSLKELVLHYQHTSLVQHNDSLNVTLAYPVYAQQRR

Broadly, the EC50 is the concentration at which the effect is half-maximal. A low value points to an effect from little substance. Consider `C[C@H](Nc1ncnc2scnc12)c1cc2cccc(Cl)c2c(=O)n1C1CC1` [Compound 8], for which, in the test on Balb/c splenic B cells, the EC50 was below 100 nM.

As to `C[C@H](Nc1ncnc2scnc12)c1cc2cccc(Cl)c2c(=O)n1-c1ccccc1` [Compound 2], in the test on Balb/c splenic B cells, the EC50 was below 100 nM.

As a reminder, the IC50 is the concentration needed to halve the response being measured. In the case of `COc1ncc(-c2cccc3cc([C@H](C)Nc4ncnc5scnc45)n(-c4ccccc4)c(=O)c23)s1` [Compound 93], the EC50 in the test on Balb/c splenic B cells is below 100 nM. Further, the IC50 on PI3Kβ fell in the range of 1000 to 10000 nM.

For `C[C@H](Nc1ncnc2scnc12)c1cc2scc(Cl)c2c(=O)n1-c1ccccc1` [Compound 15], on PI3Kα, the IC50 was 1000 to 10000 nM.

Consider `COc1cncc(-c2cccc3cc([C@H](C)Nc4ncnc5scnc45)n(-c4ccccc4)c(=O)c23)c1` [Compound 39], for which the EC50 with Balb/c splenic B cells was below 100 nM.

`C[C@H](Nc1ncnc2scnc12)c1cc2cccc(-c3cccc(N(C)C)c3)c2c(=O)n1-c1ccccc1` [Compound 45]: the EC50 in the test on Balb/c splenic B cells is below 100 nM. The IC50 on PI3Kβ is 1000 to 10000 nM.

Regarding `C[C@H](Nc1ccnc2scnc12)c1cc2cccc(-c3cnn(C)c3)c2c(=O)n1-c1ccccc1` [Compound 91], the IC50 at PI3Kβ and on PI3Kα was 1000 to 10000 nM in each case.

As for `C[C@H](Nc1ncnc2scnc12)c1cc2cccc(-c3cn[nH]c3)c2c(=O)n1-c1ccccc1` [Compound 26], the IC50 on PI3Kβ and on PI3Kα was 1000 to 10000 nM throughout.

In turn, `COc1cncc(-c2cccc3cc([C@H](C)Nc4ncnc5scnc45)n(C4CC4)c(=O)c23)c1` [Compound 64] yielded an EC50 in the test with Balb/c splenic B cells below 100 nM.

As for `Cc1ncc(-c2cccc3cc([C@H](C)Nc4ncnc5scnc45)n(-c4ccccc4)c(=O)c23)cn1` [Compound 37], the IC50 on PI3Kα was 1000 to 10000 nM.

In turn, `C[C@H](Nc1ncnc2scnc12)c1cc2cccc(-c3ccc(=O)n(C)c3)c2c(=O)n1-c1ccccc1` [Compound 51] yielded an EC50 with Balb/c splenic B cells below 100 nM. For the same molecule, on PI3Kβ, the IC50 was in the range of 1000 to 10000 nM.

In the test on Balb/c splenic B cells, `C[C@H](Nc1ncnc2scnc12)c1cc2cccc(-c3cnc4nccnc4c3)c2c(=O)n1-c1ccccc1` [Compound 57] had an EC50 below 100 nM.

As to `C[C@H](Nc1ncnc2scnc12)c1cc2cccc(-c3ccncc3)c2c(=O)n1-c1ccccc1` [Compound 33], on PI3Kβ, the IC50 is 1000 to 10000 nM.

As for `C[C@H](Nc1ncnc2scnc12)c1cc2cccc(-c3ccc(N)nc3)c2c(=O)n1-c1ccccc1` [Compound 46], the EC50 in the test with Balb/c splenic B cells was below 100 nM. Further, at PI3Kβ, the IC50 is 1000 to 10000 nM.

Turning to `C[C@H](Nc1ncnc2scnc12)c1cc2ccccc2c(=O)n1-c1ccccc1` [Compound 71], the IC50 at PI3Kβ and at PI3Kα was 1000 to 10000 nM throughout.

Turning to `COc1cccc(-c2cccc3cc([C@H](C)Nc4ncnc5scnc45)n(-c4ccccc4)c(=O)c23)c1` [Compound 31], the IC50 on PI3Kβ lay in the range of 1000 to 10000 nM.

As to `COc1ccc(-c2cccc3cc([C@H](C)Nc4ncnc5scnc45)n(-c4ccccc4)c(=O)c23)cn1` [Compound 18], the IC50 at PI3Kβ and at PI3Kα was 1000 to 10000 nM in each case.

With `C[C@H](Nc1ncnc2scnc12)c1cc2cccc(-c3cnc(N)nc3)c2c(=O)n1-c1ccccc1` [Compound 50], the EC50 in the test on Balb/c splenic B cells is below 100 nM. Moreover, the IC50 on PI3Kβ lay within 1000 to 10000 nM.

Take `C[C@H](Nc1ncnc2scnc12)c1cc2cccc(Cl)c2c(=O)n1-c1cccc(C(F)(F)F)c1` [Compound 73]: on PI3Kβ, the IC50 was in the range of 1000 to 10000 nM.

As to `C[C@H](Nc1ncnc2scnc12)c1cc2cccc(-c3ccoc3)c2c(=O)n1-c1ccccc1` [Compound 34], the IC50 on PI3Kβ was in the range of 1000 to 10000 nM.

Consider `C[C@H](Nc1ncnc2scnc12)c1cc2scc(-c3cnn(C)c3)c2c(=O)n1-c1ccccc1` [Compound 16], for which, at PI3Kα, the IC50 lay in the range of 1000 to 10000 nM.

On to `Cc1cc(-c2cccc3cc([C@H](C)Nc4ncnc5scnc45)n(-c4ccccc4)c(=O)c23)ccn1` [Compound 27], for which the IC50 at PI3Kβ was in the range of 1000 to 10000 nM.

Molecule `C[C@H](Nc1ncnc2scnc12)c1cc2cccc(-c3ccc(C(F)(F)F)nc3)c2c(=O)n1-c1ccccc1` [Compound 13] returned an EC50 in the test on Balb/c splenic B cells below 100 nM.

Turning to `C[C@H](Nc1ncnc2scnc12)c1cc2cccc(-c3cncnc3)c2c(=O)n1-c1ccccc1` [Compound 19], the IC50 on PI3Kβ and on PI3Kα was 1000 to 10000 nM in each case.

Consider `COc1ccccc1-c1cccc2cc([C@H](C)Nc3ncnc4scnc34)n(-c3ccccc3)c(=O)c12` [Compound 35], for which the IC50 at PI3Kβ and on PI3Kα was 1000 to 10000 nM in each case.

As to `C[C@H](Nc1ncnc2scnc12)c1cc2cccc(-c3cccnc3)c2c(=O)n1-c1ccccc1` [Compound 28], the IC50 at PI3Kβ and at PI3Kα was 1000 to 10000 nM throughout.

Turning to `Cc1cncc(-c2cccc3cc([C@H](C)Nc4ncnc5scnc45)n(-c4ccccc4)c(=O)c23)c1` [Compound 20], the IC50 on PI3Kβ is 1000 to 10000 nM.

As for `CC(C)Cn1cc(-c2cccc3cc([C@H](C)Nc4ncnc5scnc45)n(-c4ccccc4)c(=O)c23)cn1` [Compound 24], the half-inhibitory concentration (IC50) on PI3Kα was 1000 to 10000 nM.

`C[C@H](Nc1ncnc2scnc12)c1cc2cccc(-c3ccc(N)nc3)c2c(=O)n1C1CC1` [Compound 63] displayed an EC50 in the test with Balb/c splenic B cells below 100 nM.

With `Cc1cc(-c2cccc3cc([C@H](C)Nc4ncnc5scnc45)n(-c4ccccc4)c(=O)c23)cnc1F` [Compound 30], the IC50 at PI3Kβ and at PI3Kα was 1000 to 10000 nM each time.

Molecule `C[C@H](Nc1ncnc2scnc12)c1cc2cccc(Cl)c2c(=O)n1CCN1CCCC1` [Compound 68] yielded an EC50 in the test on Balb/c splenic B cells below 100 nM.

Turning to `Cc1cc(-c2cccc3cc([C@H](C)Nc4ncnc5scnc45)n(-c4ccccc4)c(=O)c23)cnc1C` [Compound 40], the IC50 at PI3Kβ and at PI3Kα was 1000 to 10000 nM throughout.

`Cc1ccnc2cc(C(C)Nc3ncnc4scnc34)n(-c3ccccc3)c(=O)c12` (stereo not shown) [Compound 70]: the IC50 on PI3Kβ is 1000 to 10000 nM.

`C[C@H](Nc1nc(Cl)nc2scnc12)c1cc2cccc(-c3cnn(C)c3)c2c(=O)n1-c1ccccc1` [Compound 75]: the IC50 on PI3Kβ and at PI3Kα was 1000 to 10000 nM each time.

With `CCCn1cc(-c2cccc3cc([C@H](C)Nc4ncnc5scnc45)n(-c4ccccc4)c(=O)c23)cn1` [Compound 29], the IC50 at PI3Kβ and on PI3Kα was 1000 to 10000 nM in each case.

Regarding `C[C@H](Nc1ncnc2scnc12)c1cc2cccc(-c3ccnc(C(F)(F)F)c3)c2c(=O)n1-c1ccccc1` [Compound 17], the IC50 on PI3Kβ and at PI3Kα was 1000 to 10000 nM throughout.

`C[C@H](Nc1ncnc2scnc12)c1cc2cccc(-c3cnc4ccccc4c3)c2c(=O)n1-c1ccccc1` [Compound 41] displayed an EC50 in the test with Balb/c splenic B cells below 100 nM.

In the case of `Cc1nn(C)cc1-c1cccc2cc([C@H](C)Nc3ncnc4scnc34)n(-c3ccccc3)c(=O)c12` [Compound 42], at PI3Kβ, the IC50 was in the range of 1000 to 10000 nM.

`C[C@H](Nc1ncnc2scnc12)c1cc2cccc(-c3cnn(C)c3)c2c(=O)n1C1CC1` [Compound 9] registered an EC50 in the test with Balb/c splenic B cells below 100 nM.

In the case of `COc1cnccc1-c1cccc2cc([C@H](C)Nc3ncnc4scnc34)n(-c3ccccc3)c(=O)c12` [Compound 36], the IC50 at PI3Kβ and at PI3Kα was 1000 to 10000 nM throughout.

On to `CC(C)n1cc(-c2cccc3cc([C@H](C)Nc4ncnc5scnc45)n(-c4ccccc4)c(=O)c23)cn1` [Compound 23], for which, on PI3Kα, the IC50 lay within 1000 to 10000 nM.

With `COc1cc(-c2cccc3cc([C@H](C)Nc4ncnc5scnc45)n(-c4ccccc4)c(=O)c23)ccn1` [Compound 52], the EC50 with Balb/c splenic B cells is below 100 nM. Also, the IC50 on PI3Kβ fell in the range of 1000 to 10000 nM.

`C[C@H](Nc1ncnc2scnc12)c1cc2cccc(-c3cnc4ccoc4c3)c2c(=O)n1-c1ccccc1` [Compound 55] gave an EC50 in the test on Balb/c splenic B cells below 100 nM. The concentration for half-maximal inhibition (IC50) at PI3Kβ is 1000 to 10000 nM.

In the test with Balb/c splenic B cells, `C[C@H](Nc1ncnc2scnc12)c1cc2cccc(-c3cnc4c(c3)CCCO4)c2c(=O)n1-c1ccccc1` [Compound 54] showed an EC50 below 100 nM. Besides, on PI3Kβ, the IC50 lay within 1000 to 10000 nM.

On to `CCn1cc(-c2cccc3cc([C@H](C)Nc4ncnc5scnc45)n(-c4ccccc4)c(=O)c23)cn1` [Compound 25], for which the IC50 on PI3Kβ and on PI3Kα was 1000 to 10000 nM in each case.
